A short description of data set [1]: Selectivity index, ratio of CC50 for human HuH7 cells to EC50 for HCV subtype 1a. Set-up: species or system Huh-7.
Data set [2] deals with Hepatitis C virus. In words: Antiviral activity against HCV subtype 1a infected in Huh-7 cells assessed as reduction in viral RNA level at 84.4 uM after 8 to 10 days by quantitative PCR analysis. The class given is functional, Hepacivirus hominis.
A short description of data set [3]: Cytotoxicity against human HuH7 cells after 2 days by XTT assay. The class given is cell-based, Huh-7.
Data set [4] concerns Hepatitis C virus. The data set can be described thus: Antiviral activity against HCV subtype 1a infected in Huh-7 cells assessed as reduction in viral RNA level after 8 to 10 days by quantitative PCR analysis. It is filed as functional, organism-based, Hepacivirus hominis.
Data set [5] has as its system Hepatitis C virus. In words: Antiviral activity against HCV subtype 1a infected in Huh-7 cells assessed as reduction in viral RNA level at 69.4 uM after 8 to 10 days by quantitative PCR analysis. It is filed as functional, Hepacivirus hominis.
Data set [6] concerns Hepatitis C virus. The data set can be described thus: Antiviral activity against HCV subtype 1a infected in Huh-7 cells assessed as reduction in viral RNA level at 75.2 uM after 8 to 10 days by quantitative PCR analysis. It is filed as functional, Hepacivirus hominis.
The test system of data set [7] is Hepatitis C virus. The data set can be described thus: Antiviral activity against HCV subtype 1a infected in Huh-7 cells assessed as reduction in viral RNA level at 71.4 uM after 8 to 10 days by quantitative PCR analysis. It is filed as functional, Hepacivirus hominis.
Data set [8] relates to Hepatitis C virus. In words: Antiviral activity against HCV subtype 1a infected in Huh-7 cells assessed as reduction in viral RNA level at 69.7 uM after 8 to 10 days by quantitative PCR analysis. It is filed as functional, Hepacivirus hominis.
For data set [9], the system named is Hepatitis C virus. In words: Antiviral activity against HCV subtype 1a infected in Huh-7 cells assessed as reduction in viral RNA level at 79.4 uM after 8 to 10 days by quantitative PCR analysis. It is filed as functional, Hepacivirus hominis.
Data set [10] concerns Hepatitis C virus. The data set can be described thus: Antiviral activity against HCV subtype 1a infected in Huh-7 cells assessed as reduction in viral RNA level at 83.3 uM after 8 to 10 days by quantitative PCR analysis. The class given is functional, Hepacivirus hominis.
Data set [11] relates to Hepatitis C virus. In words: Antiviral activity against HCV subtype 1a infected in Huh-7 cells assessed as reduction in viral RNA level at 35.6 uM after 8 to 10 days by quantitative PCR analysis. It is filed as functional, Hepacivirus hominis.
Data set [12] relates to Hepatitis C virus. The data set can be described thus: Antiviral activity against HCV subtype 1a infected in Huh-7 cells assessed as reduction in viral RNA level at 67.7 uM after 8 to 10 days by quantitative PCR analysis. The class given is functional, Hepacivirus hominis.
Data set [13] relates to Hepatitis C virus. The data set can be described thus: Antiviral activity against HCV subtype 1a infected in Huh-7 cells assessed as reduction in viral RNA level at 33.1 uM after 8 to 10 days by quantitative PCR analysis. The class given is functional, Hepacivirus hominis.
Data set [14] concerns Hepatitis C virus. In words: Antiviral activity against HCV subtype 1a infected in Huh-7 cells assessed as reduction in viral RNA level at 33.1 uM after 8 to 10 days by quantitative PCR analysis in presence of ribavirin. It is filed as functional, Hepacivirus hominis.
The test system of data set [15] is Hepatitis C virus. The data set can be described thus: Antiviral activity against HCV subtype 1a infected in Huh-7 cells assessed as reduction in viral RNA level at 66.2 uM after 8 to 10 days by quantitative PCR analysis. It is filed as functional, Hepacivirus hominis.
For data set [16], the system named is Hepatitis C virus. In words: Antiviral activity against HCV subtype 1a infected in Huh-7 cells assessed as reduction in viral RNA level at 69.6 uM after 8 to 10 days by quantitative PCR analysis. It is filed as functional, Hepacivirus hominis.
Data set [17] relates to Hepatitis C virus. In words: Antiviral activity against HCV subtype 1a infected in Huh-7 cells assessed as reduction in viral RNA level at 72.9 uM after 8 to 10 days by quantitative PCR analysis. The class given is functional, Hepacivirus hominis.
Data set [18] has as its system Hepatitis C virus. In words: Antiviral activity against HCV subtype 1a infected in Huh-7 cells assessed as reduction in viral RNA level at 41 uM after 8 to 10 days by quantitative PCR analysis. It is filed as functional, Hepacivirus hominis.
The subject of data set [19] is Hepatitis C virus. The data set can be described thus: Antiviral activity against HCV subtype 1a infected in Huh-7 cells assessed as reduction in viral RNA level at 81.9 uM after 8 to 10 days by quantitative PCR analysis. It is filed as functional, Hepacivirus hominis.

15 compounds from ChEMBL document CHEMBL3124855, “4'-Substituted pyrimidine nucleosides lacking 5'-hydroxyl function as potential anti-HCV agents” (Bioorg Med Chem Lett, 2014) can be followed below.

Bounds are passed on as bounds.

`Cc1cn([C@H]2CC=C(C(N)=O)O2)c(=O)[nH]c1=O`: in data set [1], the “Ratio CC50/EC50” value is listed as >10. Moreover, the inhibition at 84.4 µM in [2] was 20%. Also, the CC50 at 48 h in [3] was > 1060 µM.

For the compound `COC(=O)[C@H]1O[C@@H](n2cc(C)c(=O)[nH]c2=O)[C@H](F)[C@@H]1O`, the “Ratio CC50/EC50” value in data set [1] is listed as >10. In addition, in [4], the EC50 stood at 43.4 µM. Besides, in [3], the CC50 at 48 h is > 868 µM. The inhibition at 69.4 µM in data set [5] turned out to be 56%.

For the compound `[N-]=[N+]=N[C@H]1C[C@H](n2ccc(=O)[nH]c2=O)O[C@@H]1C(N)=O`, the “Ratio CC50/EC50” value in [1] is given as >10. Also, the inhibition at 75.2 µM in data set [6] worked out at 10%. For the same compound, in data set [3], the CC50 at 48 h is > 940 µM.

For the compound `Cc1cn([C@H]2C[C@H](N=[N+]=[N-])[C@@H](C(N)=O)O2)c(=O)[nH]c1=O`, in [1], the “Ratio CC50/EC50” value is >10. Further, the CC50 at 48 h in data set [3] is > 893 µM. Also, the inhibition at 71.4 µM in [7] worked out at 10%.

Regarding `CCc1cn([C@@H]2O[C@H](C(N)=O)[C@@H](O)[C@@H]2F)c(=O)[nH]c1=O`, in [8], the inhibition at 69.7 µM was found to be 20%. In addition, in data set [1], the “Ratio CC50/EC50” value is recorded as >10. Moreover, in data set [3], the CC50 at 48 h is > 871 µM.

As to `COC(=O)[C@@H]1C=C[C@H](n2cc(C)c(=O)[nH]c2=O)O1`, in data set [1], the “Ratio CC50/EC50” value is given as >10. The EC50 in data set [4] is 49.6 µM. Further, the CC50 at 48 h in data set [3] was > 992 µM. For the same compound, in [9], the inhibition at 79.4 µM is 58%.

With `COC(=O)C1=CC[C@H](n2cc(C)c(=O)[nH]c2=O)O1`, the “Ratio CC50/EC50” value in [1] is reported as >10. Also, the EC50 in data set [4] was determined as 79.4 µM. Besides, the CC50 at 48 h in data set [3] was > 992 µM. In data set [9], the inhibition at 79.4 µM stood at 50%.

`COC(=O)[C@@H]1CC[C@H](n2ccc(=O)[nH]c2=O)O1`: the “Ratio CC50/EC50” value in data set [1] is >10. In addition, the CC50 at 48 h in data set [3] is > 1040 µM. Besides, the inhibition at 83.3 µM in data set [10] came to 0%.

Regarding `COC(=O)[C@H]1O[C@@H](n2ccc(=O)[nH]c2=O)C[C@@H]1N=[N+]=[N-]`, the “Ratio CC50/EC50” value in data set [1] is recorded as >10. The inhibition at 35.6 µM in data set [11] amounted to 54%. For the same compound, the EC50 in data set [4] was found to be 35.6 µM. Besides, the CC50 at 48 h in [3] was > 890 µM.

On to `COC(=O)[C@H]1O[C@@H](n2cc(C)c(=O)[nH]c2=O)C[C@@H]1N=[N+]=[N-]`, for which the inhibition at 67.7 µM in data set [12] amounted to 60%. In data set [1], the “Ratio CC50/EC50” value is >10. Moreover, the EC50 in data set [4] was determined as 33.9 µM. Also, in data set [3], the CC50 at 48 h was > 847 µM.

In the case of `CCc1cn([C@@H]2O[C@H](C(=O)OC)[C@@H](O)[C@@H]2F)c(=O)[nH]c1=O`, the inhibition at 33.1 µM in [13] is 50%. Besides, the “Ratio CC50/EC50” value in [1] is >10. In addition, in data set [4], the EC50 stood at 33.1 µM. In addition, in [3], the CC50 at 48 h was > 829 µM. The “fractional inhibitory concentration index (FICI)” value in data set [14] is given as 0.3. In addition, the inhibition at 66.2 µM in data set [15] is 65%.

Turning to `COC(=O)[C@H]1O[C@@H](n2ccc(=O)[nH]c2=O)[C@H](OC)[C@@H]1O`, the inhibition at 69.6 µM in [16] is 53%. The “Ratio CC50/EC50” value in data set [1] is on record as >10. Besides, in data set [4], the EC50 worked out at 69.6 µM. In addition, the CC50 at 48 h in [3] is > 874 µM.

`COC(=O)[C@H]1O[C@@H](n2cc(C)c(=O)[nH]c2=O)C[C@@H]1Cl`: the “Ratio CC50/EC50” value in [1] was >10. Moreover, in [4], the EC50 was 43.4 µM. Also, the CC50 at 48 h in data set [3] is > 868 µM. Moreover, in data set [5], the inhibition at 69.4 µM came to 58%.

In the case of `COC(=O)[C@H]1O[C@@H](n2ccc(=O)[nH]c2=O)[C@H](F)[C@@H]1O`, the “Ratio CC50/EC50” value in [1] was >10. In addition, in [4], the EC50 is > 72.9 µM. Further, the CC50 at 48 h in data set [3] was > 912 µM. Moreover, in data set [17], the inhibition at 72.9 µM was 43%.

Regarding `NC(=O)c1ncn([C@@H]2O[C@H](CO)[C@@H](O)[C@H]2O)n1` [RIBAVIRIN], the “Ratio CC50/EC50” value in data set [1] is >10. In [18], the inhibition at 41 µM came out at 32%. Also, in data set [19], the inhibition at 81.9 µM was determined as 50%.
